Like-named read-outs stand apart in the source and are kept apart here.
How the values were obtained:
[1] = Study S.241.1.107: pharmacokinetics in hepatic impairment, 8 mg TID; conditions: for AUC(0-τ) Ratio / Cmax Ratio: geometric LS mean ratio impaired/healthy; for AUC(0-τ) Ratio / Cmax Ratio / AUC(0-τ), Geom. LS Mean / Cmax, Geom. LS Mean / AUC(0-τ) / Cmax / T½ / Tmax: cilansetron 8 mg TID oral; for AUC(0-τ): AUC(0-8); for AUC(0-τ) / Cmax / T½: arith. mean (%CV); for Tmax: median; for AUC(0-τ) decrease with hepatic impairment / Cmax decrease with hepatic impairment: in vivo
Procedure: The effect of hepatic impairment on the pharmacokinetics of cilansetron was evaluated in a multiple-dose, parallel group study in 14 healthy and 14 moderately to severely hepatically impaired male and female subjects, aged 41-70 years. Impaired subjects (Child-Pugh score 7 to 11) were matched to healthy subjects by age (±2 years), sex, menstrual status, and smoking history status. All subjects received oral cilansetron 8 mg TID on Days 1 to 5, and a single dose on the morning of Day 6. […] Blood samples were also collected at predose on Day 1, and at predose, 1 hour and 1.5 hours postdose on Day 6, for measurement of cilansetron protein binding in serum.

[2] = male, human, in vivo
Procedure: (§2) Subjects were treated with a single oral dose of cilansetron 8 mg (tablet) on Day 1, followed by 8 mg TID for 5 days (Days 2-6) and a single 8 mg dose on the morning of Day 7. Young subjects ranged in age from 19-45 years, and elderly from 66-79 years. Serial blood samples were collected up to 24 hours postdose on Days 1 and 7, and cilansetron pharmacokinetic parameters were calculated. Doses on pharmacokinetic sampling days were administered under fasted conditions.
(§3) Young subjects ranged in age from 19-45 years, and elderly from 66-79 years. Serial blood samples were collected up to 24 hours postdose on Days 1 and 7, and cilansetron pharmacokinetic parameters were evaluated. Doses on pharmacokinetic sampling days were administered under fasted conditions.

clinical [3] = conditions: both, human, serum, Fraction Unbound in Serum
Procedure: The ex vivo protein binding of cilansetron and its 4-hydroxy metabolites has been measured in serum samples collected in a multiple-dose study in healthy and renally impaired male and female subjects, aged 33-74 years. […] Healthy subjects were matched to renally-impaired subjects with respect to age, weight, gender, and smoking status. All subjects received oral cilansetron 2 mg TID on Days 1 to 5, and a single dose on the morning of Day 6.

healthy subjects [4] = assay: Study K.241.5012: gastric emptying time, healthy young subjects; format: in vivo, human; conditions: mean (SD), not significant vs placebo
Text: The effect of cilansetron on gastric emptying time and colonic transit time has been studied in 1 clinical study in healthy young subjects and 2 studies in elderly subjects. For measurement of gastric emptying time, breath samples for the determination of the ^12C/^13C ratio were taken on the last day of each treatment period immediately after ingestion of a ^13C labeled meal. The patients' breath was collected in separate 15-minute intervals, for four hours in total. ^13CO2 measurements were performed with an isotope ratio mass spectrometer. The half-life (TK) and lag-time (Tlag), which describe the duration of gastric emptying, were used as the primary parameters to evaluate gastric emptying time. In all 3 studies, colonic transit time was measured by administration of radio-opaque markers for the last six days of each treatment period, followed by a single abdominal X-ray image at 24 hours after ingestion of the last set of markers. The numbers of markers within the colon were used to calculate segmental (right colon, left colon, and rectosigmoid) and total colonic transit time.
Study K.241.5013 was a randomized, double-blind, placebo-controlled, 3-way crossover study in 12 healthy male subjects (ITT population), aged 20-27 years. Subjects received cilansetron 4 mg, cilansetron 8 mg, or placebo orally TID for 14 days during each of the treatment periods, with a 14-day washout between periods. The primary efficacy parameter was the total mean colonic transit time during each treatment and the secondary parameters were the segmental colonic transit times and the gastric emptying measurements. A one-sided Dunnett t-test procedure was used to compare efficacy parameters between the cilansetron and placebo treatments.

[5] = in vivo
Procedure: Time to reach steady state following dosing with cilansetron 2 mg TID has been evaluated in a study in 9 healthy male and female subjects.

healthy subjects [6] = assay: Study S.241.2.104: gastric visceral perception (barostat); format: in vivo, human
Procedure: The effect of cilansetron on gastric perception was evaluated in a randomized, double-blind, placebo-controlled, parallel-group study in 44 male and female healthy subjects (ITT population; 22 subjects received placebo and 22 received 8 mg cilansetron), aged 19-43 years. Subjects received cilansetron 8 mg TID orally for 7 days and gastric distension tests were done at baseline (Day 1, prior to dosing) and poststudy (Day 8). An electronic barostat was used to produce isobarometric distensions (starting from 2 mmHg, progressive distensions in 2 mmHg increments were performed every 2 minutes until gastric pain occurred or an upper limit of 20 rnrnHg was reached) and isovolumetric distensions (starting from an initial volume of 200 mL, progressive distensions in 100 mL increments were performed every 2 minutes until gastric pain occurred or an upper limit of 1100 mL was reached). The primary efficacy parameter was the difference in pain threshold from baseline to poststudy, measured by the amount of distension pressure inducing gastric pain. Secondary parameters were the mean distension pressure/volume inducing the first feelings of gastric sensation and gastric discomfort, and changes in bowel habits over the treatment period. A 2-sample t-test was used to compare baseline-adjusted pain threshold and other secondary efficacy parameters between cilansetron and placebo treatments.

[7] = target: purified human serum albumin (Homo sapiens, UniProt P02768); format: in vitro ADME
Procedure: (§1) Protein binding was also evaluated in an in vitro study in human, mouse, rat, and dog plasma using equilibrium dialysis (12-14K molecular weight cut-off membrane). This study measured the binding of (^14C)-cilansetron in plasma at nominal concentrations (30, 90, and 300 ng/mL) which are much higher than those encountered in vivo in humans. This study also measured the binding of (^14C)-cilansetron to purified human serum albumin at cilansetron concentrations ranging from 30-3000 ng/mL and to purified human alpha-1 acid glycoprotein (AAG) at concentrations ranging from 30-10000 ng/mL.

[8] = system: purified human alpha-1 acid glycoprotein (AAG); format: in vitro ADME
Procedure: as §1

[9] = format: in vitro ADME
Procedure: as §1

[10] = system: CYP2A6, CYP2B6, CYP2C9, CYP2D6, and CYP2E1
Procedure: The CYP mRNA induction potentials of cilansetron and its two main metabolites, (4S)-hydroxy and (4R)-hydroxy cilansetron, were determined in human hepatocytes and compared to three model inducers, 3-methylcholantrene, phenobarbital, and rifampin.

clinical [11] = conditions: human, in vivo; for AUC: AUC (0-τ)
Procedure: as §2, §3

[12] = 8 mg TID oral 7 days, Day 8, arith. mean
[13] = 8 mg TID oral 7 days, arith. mean
[14] = 8 mg TID oral 7 days, baseline-adjusted, 2-sample t-test, significant (p < 0.01)

Chain of purified human serum albumin (P02768 25-609): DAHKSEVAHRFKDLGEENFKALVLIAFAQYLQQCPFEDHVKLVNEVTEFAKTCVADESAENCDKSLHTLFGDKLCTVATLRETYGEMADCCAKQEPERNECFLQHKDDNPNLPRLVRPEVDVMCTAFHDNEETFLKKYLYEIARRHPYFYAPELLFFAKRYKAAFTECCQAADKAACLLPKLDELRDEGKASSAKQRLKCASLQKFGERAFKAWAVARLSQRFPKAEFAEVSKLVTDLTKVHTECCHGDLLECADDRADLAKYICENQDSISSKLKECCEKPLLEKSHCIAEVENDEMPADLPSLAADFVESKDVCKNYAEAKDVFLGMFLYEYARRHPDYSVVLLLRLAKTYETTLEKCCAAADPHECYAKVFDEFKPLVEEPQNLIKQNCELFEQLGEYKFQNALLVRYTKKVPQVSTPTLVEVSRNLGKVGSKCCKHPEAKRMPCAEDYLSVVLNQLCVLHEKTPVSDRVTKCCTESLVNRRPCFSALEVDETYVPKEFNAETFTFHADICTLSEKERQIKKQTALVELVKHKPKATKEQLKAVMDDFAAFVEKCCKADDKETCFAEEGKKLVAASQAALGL

SMILES: Cc1nccn1CC1CCc2c(c3cccc4c3n2CC[C@H]4O)C1=O (stereo partly drawn) [(4R)-hydroxy cilansetron]
- AUC(0-τ) Ratio [1]: 0.86
- Cmax Ratio [1]: 0.70
- AUC(0-τ), Geom. LS Mean ([1]; healthy): 57.4 ng·h/mL
- Cmax, Geom. LS Mean ([1]; healthy): 13.2 ng/mL
- AUC(0-τ) ([1]; healthy): 62.7 (32) ng · h/mL
- Cmax ([1]; healthy): 14.1 (28) ng/mL
- T½ ([1]; healthy): 6.38 (18) h
- Tmax ([1]; healthy): 1.00 h
- AUC(0-τ), Geom. LS Mean ([1]; hepatically impaired): 49.4 ng·h/mL
- Cmax, Geom. LS Mean ([1]; hepatically impaired): 9.30 ng/mL
- AUC(0-τ) ([1]; hepatically impaired): 53.7 (40) ng · h/mL
- Cmax ([1]; hepatically impaired): 11.1 (62) ng/mL
- T½ ([1]; hepatically impaired): 10.0 (41) h
- Tmax ([1]; hepatically impaired): 1.50 h
- AUC(0-τ) decrease with hepatic impairment [1]: 14%
- Cmax decrease with hepatic impairment [1]: 30%

SMILES: Cc1nccn1CC1CCc2c(c3cccc4c3n2CC[C@@H]4O)C1=O (stereo partly drawn) [(4S)-hydroxy cilansetron]
- AUC(0-τ) Ratio [1]: 0.68
- Cmax Ratio [1]: 0.64
- AUC(0-τ), Geom. LS Mean ([1]; healthy): 42.5 ng·h/mL
- Cmax, Geom. LS Mean ([1]; healthy): 6.89 ng/mL
- AUC(0-τ) ([1]; healthy): 47.9 (36) ng · h/mL
- Cmax ([1]; healthy): 7.57 (33) ng/mL
- T½ ([1]; healthy): 7.65 (17) h
- Tmax ([1]; healthy): 3.00 h
- AUC(0-τ), Geom. LS Mean ([1]; hepatically impaired): 29.1 ng·h/mL
- Cmax, Geom. LS Mean ([1]; hepatically impaired): 4.39 ng/mL
- AUC(0-τ) ([1]; hepatically impaired): 33.8 (57) ng · h/mL
- Cmax ([1]; hepatically impaired): 5.17 (59) ng/mL
- T½ ([1]; hepatically impaired): 9.41 (30) h
- Tmax ([1]; hepatically impaired): 3.00 h
- AUC(0-τ) decrease with hepatic impairment [1]: 32%
- Cmax decrease with hepatic impairment [1]: 36%

SMILES: Cc1nccn1C[C@H]1CCc2c(c3cccc4c3n2CCC4)C1=O [Cilansetron, (R)-(−)-4,5,6,8,9,10-hexahydro-10-[(2-methyl-1H-imidazol-1-yl)methyl]-11H-pyrido-[3,2,1-jk]-carbazol-11-one]
- AUC(0-inf) [2]: 252 (123) ng · h/mL
- fraction unbound (clinical [3]): 0.0396
- fraction unbound at 1 h (clinical [3]): 0.0351
- fraction unbound at […] (clinical [3]): 0.034
- gastric emptying time Tlag (healthy subjects [4]; 4 mg TID oral 14 days): 1.70 (0.22) hours
- gastric emptying time T½ (healthy subjects [4]; 4 mg TID oral 14 days): 2.46 (0.35) hours
- gastric emptying time Tlag (healthy subjects [4]; 8 mg TID oral 14 days): 1.63 (0.30) hours
- gastric emptying time T½ (healthy subjects [4]; 8 mg TID oral 14 days): 2.38 (0.42) hours
- Steady state achieved by [5]: third day
- Mean gastric pain threshold raised vs baseline (healthy subjects [6]; 8 mg TID 7 days): 1.9 mmHg
- Pressure first producing gastric discomfort, Poststudy (healthy subjects [6]; [12]): 11.9 mmHg
- Pressure first producing gastric pain, Poststudy (healthy subjects [6]; [12]): 15.4 mmHg
- Pressure first producing gastric sensation, Poststudy (healthy subjects [6]; [12]): 8.9 mmHg
- Volume first producing gastric pain, Poststudy (healthy subjects [6]; [12]): 764 mL
- Pressure first producing gastric discomfort, Change from Baseline (healthy subjects [6]; [13]): 0.9 mmHg
- Pressure first producing gastric pain, Change from Baseline (healthy subjects [6]; [13]): 1.9 mmHg
- Pressure first producing gastric sensation, Change from Baseline (healthy subjects [6]; [13]): 0.9 mmHg
- Volume first producing gastric pain, Change from Baseline (healthy subjects [6]; [13]): 77 mL
- Volume first producing gastric pain, Difference cilansetron versus placebo (healthy subjects [6]; 8 mg TID oral 7 days, baseline-adjusted, 2-sample t-test): -18 mL
- Pressure first producing gastric discomfort, Difference cilansetron versus placebo (healthy subjects [6]; [14]): 2.2 mmHg
- Pressure first producing gastric pain, Difference cilansetron versus placebo (healthy subjects [6]; [14]): 2.8 mmHg
- Pressure first producing gastric sensation, Difference cilansetron versus placebo (healthy subjects [6]; [14]): 2.1 mmHg
- Gastric discomfort threshold raised (healthy subjects [6]; in vivo): 0.9 mmHg
- Gastric pain threshold mean increase vs placebo (healthy subjects [6]; in vivo): 2.8 mmHg
- Gastric sensation threshold raised (healthy subjects [6]; in vivo): 0.9 mmHg
- Mean volume to reach gastric pain threshold raised (healthy subjects [6]; in vivo): 77.3 mL
- Gastric discomfort threshold treatment increase (healthy subjects [6]; vs placebo): 2.2 mmHg
- Gastric sensation threshold treatment increase (healthy subjects [6]; vs placebo): 2.1 mmHg
- Volume difference between treatments (healthy subjects [6]; vs placebo): -18.0 mL
- Binding to human albumin [7]: 65.9%
- Binding to AAG [8]: around 90%
- Plasma binding ([9]; dog): 86.5%
- Plasma binding ([9]; mouse): 83.3%
- Plasma binding ([9]; rat): 88.2%
- Inductive effect on other CYP isozymes [10]: did not show an inductive effect
- AUC(0-inf) (clinical [11]; female, 8 mg): 289 ng·h/mL
- AUC (clinical [11]; female, 8 mg): 247 ng·h/mL
- AUC(0-inf) (clinical [11]; female): 178 ng·h/mL
- AUC (clinical [11]; female): 263 ng·h/mL
- Cmax (clinical [11]; female): 95.1 ng/mL
- Tmax (clinical [11]; female): 0.88 h
- AUC(0-inf) (clinical [11]; male): 228 ng·h/mL
- AUC (clinical [11]; male): 196 ng·h/mL
- Cmax (clinical [11]; male): 58.8 ng/mL
- Tmax (clinical [11]; male): 1.31 h
- Vd/F (clinical [11]; male, Vz/F): 243 L

Source: US20090176817A1, “Method of Treatment of Diarrhea-Predominant Irritable Bowel Syndrome in a Subject” (priority 2005, published 2009)
